Each structure is given as a SMILES string.

Here are results for five compounds from ChEMBL document CHEMBL1150743, “Anti-inflammatory activity of benzoxazinoids from roots of Coix lachryma-jobi var. ma-yuen” (1988).

The subject of the assay is Mast cell. Nature of the assay: Antiinflammatory activity in Wistar rat peritoneal mast cells assessed as inhibition of concanavalin A-induced histamine release treated 10 mins before concanavalin A challenge measured after 30 mins. It counts as functional.
Take `O=C(O)[C@H]1O[C@@H](Oc2cc3oc(-c4ccccc4)cc(=O)c3c(O)c2O)[C@H](O)[C@@H](O)[C@@H]1O` [BAICALIN]: the ID50 is recorded as 3 ×10⁻⁶ M.
The figure for `COc1ccc2[nH]c(=O)oc2c1` [COIXOL] is 1 ×10⁻³ M; for `C[C@]12CCC(=O)C=C1CC[C@@H]1[C@@H]2[C@@H](O)C[C@@]2(C)[C@H]1CC[C@]2(O)C(=O)CO` [HYDROCORTISONE] it is 5 ×10⁻⁵ M.
Next, `COc1ccc2c(c1)c(CC(=O)O)c(C)n2C(=O)c1ccc(Cl)cc1` [INDOMETHACIN]: 8 ×10⁻⁴ M.
On to `COc1ccc2c(c1)OC(O)C(=O)N2` (racemic), for which the ID50 is on record as 6 ×10⁻⁵ M.
